The record followed here is patent US20220153732A1, “PROTEIN SECRETION INHIBITORS” (KEZAR LIFE SCIENCES, priority 2019, published 2022).

Holding throughout (format): cell-based
For experiment [1], the system named is PD1-ss+10aa/Gaussia Luciferase. As to the kind of experiment: Dox-Induced PD1-ss-Gluc Assay. The note with it: 24 hr doxycycline induction, 293FRT/TO cells, Gaussia luciferase signal; read-out: 24 hr Dox Inducible PD1ssGluc 293FRT/TO: Mean IC50. A digest of the protocol:
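Stable cell line carrying PD1-ss+10aa/Gaussia luciferase cDNA under T-REx (doxycycline-inducible) control, plated the day before assay. Compound dilutions in DMSO/media containing doxycycline added and incubated at 37° C, 5% CO2. Undefined stereocentres: data refer to stereoisomer mixtures.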

Experiment [2] relates to IL-2-FL/Gaussia Luciferase. Put plainly: Dox Induced IL2-FL-Gluc Assay. Conditions: 24 hr doxycycline induction, 293FRT/TO cells, Gaussia luciferase signal; read-out: 24 hr Dox Inducible IL2FLGIuc 293FRT/TO: Mean IC50. A digest of the protocol:
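Stable T-REx cell line expressing doxycycline-inducible IL-2-FL/Gaussia luciferase cDNA, plated the day before assay. Compound dilutions in DMSO/media containing doxycycline added and incubated at 37° C., 5% CO2. Unspecified stereochemistry means data refer to a stereoisomer mixture.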

The subject of experiment [3] is TNFα-FL/Gaussia Luciferase. As to the kind of experiment: Dox Induced TNFα-FL-Gluc Assay. The note with it: 24 hr doxycycline induction, 293FRT/TO cells, Gaussia luciferase signal; read-out: 24 hr Dox Inducible TNFaFLGluc 293FRT/TO: Mean IC50. A digest of the protocol:
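A stable T-REx cell line carrying doxycycline-inducible TNFα-FL/Gaussia luciferase was plated the day before assay. Compound dilutions in DMSO/media containing doxycycline were then added and incubated at 37° C, 5% CO2.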

Experiment [4] relates to human multiple myeloma cell line U266B1. Put plainly: U266 Cell Viability Assay. The note with it: U-266, 48 hr, U266B1 cells, Celltiter-Glo, read-out: 48 hr U266 Viability Celltiter-Glo: Mean EC50. A digest of the protocol: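 U266B1 myeloma cells treated with compound dilutions in DMSO/media for 48 h at 37 °C, 5% CO2. Viability read by CellTiter-Glo luminescence. Stereochemically undefined structures were tested as stereoisomer mixtures.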
(In general: Cellular ATP, detected with luciferase, serves as a proxy for viable cell number.)

In experiment [5] the test system is HER3-ss+4aa/Gaussia Luciferase. Put plainly: Dox-Induced Her3-ss-Gluc Assay. The note with it: 24 hr doxycycline induction, 293FRT/TO cells, Gaussia luciferase signal; read-out: 24 hr Dox Inducible Her3(ss + 4)Gluc 293FRT/TO: Mean IC50. A digest of the protocol:
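Stable T-REx cell line carrying a doxycycline-regulated HER3-ss+4aa/Gaussia luciferase insert, plated the day before assay. Compound dilutions in DMSO/media with doxycycline added, then incubated at 37° C., 5% CO2. Stereoisomer mixtures tested where stereochemistry is not drawn.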

The subject of experiment [6] is human multiple myeloma cell line NCI-H929. As to the kind of experiment: H929 Cell Viability Assay. The note with it: 48 hr, NCI-H929 cells, Celltiter-Glo, read-out: 48 hr H929 Viability Celltiter-Glo: Mean EC50. How it is done: Plates were incubated at 37° C., 5% CO2 for 48 hours. After 48 hours, Celltiter-Glo® (Promega) was added to each well and luciferase signal was quantified using Tecan Infinite M1000 Pro for cell viability determination.
For chemical structures that include one or more stereoisomers, but are illustrated without indicating stereochemistry, the assay data refers to a mixture of stereoisomers.

SMILES strings stand for the structures. pEC50, pIC50: −log10 of the molar value.

`COc1ccccc1C#Cc1csc(NC(=O)c2cccn2Cc2ccncc2)n1` [Compound A141]: the pIC50 was 6.56 in experiment [1], 5.80 in experiment [2], 5.74 in experiment [3] and 6.19 in experiment [5]. For the same molecule, the pEC50 (in general, −log10 of the EC50, conventionally taken in molar units) is 4.88 in experiment [4] and 5.11 in experiment [6].
In the case of `COc1cccc(C#Cc2csc(NC(=O)c3cccn3Cc3ccncc3)n2)c1` [Compound A142], the pIC50 in experiment [1] was 6.62; in experiment [2], 5.98; in experiment [3], 5.27; in experiment [5], 6.25. Further, the pEC50 in experiment [4] and in experiment [6] was under 4.60 each time.
As for `COc1ccc(C#Cc2csc(NC(=O)c3cccn3Cc3ccncc3)n2)cc1` [Compound A143], the pIC50 is 7.05 in experiment [1], 6.21 in experiment [2], 5.80 in experiment [3] and 6.37 in experiment [5]. Moreover, the values for the negative-log EC50 (pEC50) in experiment [4] and in experiment [6] were under 4.70 and 4.82, respectively.
In the case of `O=C(Nc1nc(C#Cc2ccccc2Cl)cs1)c1cccn1Cc1ccncc1` [Compound A144], the pIC50 in experiment [1] is 6.82; in experiment [2], 6.13; in experiment [3], 6.04; in experiment [5], 6.40. For the same molecule, the pEC50 in experiment [4] is 4.98; in experiment [6], 5.16.
`O=C(Nc1nc(/C=C/C2CCCCC2)cs1)c1cccn1Cc1ccncc1` [Compound A152, N-(4-(2-cyclohexylvinyl)thiazol-2-yl)-1-(pyridin-4-ylmethyl)-1H-pyrrole-2-carboxamide]: the pIC50 in experiment [1] is 7.07; in experiment [2], 6.07; in experiment [3] it was 5.80; in experiment [5], 6.55. Also, the pEC50 is under 4.60 in experiment [4] and 4.96 in experiment [6].
For the molecule `O=C(Nc1nc(/C=C/C2CCOCC2)cs1)c1cccn1Cc1ccncc1` [Compound A153, 1-(pyridin-4-ylmethyl)-N-(4-(2-(tetrahydro-2H-pyran-4-yl)vinyl)thiazol-2-yl)-1H-pyrrole-2-carboxamide], the pIC50 was 6.04 in experiment [1], 5.39 in experiment [2], under 4.60 in experiment [3] and 5.81 in experiment [5]. The pEC50 in experiment [4] and in experiment [6] was under 4.60 throughout.
`O=C(Nc1nc(/C=C/C2CCCOC2)cs1)c1cccn1Cc1ccncc1` (stereo not drawn) [Compound A154, 1-(pyridin-4-ylmethyl)-N-(4-(2-(tetrahydro-2H-pyran-3-yl)vinyl)thiazol-2-yl)-1H-pyrrole-2-carboxamide]: the pIC50 was 6.16 in experiment [1], 5.27 in experiment [2], 4.94 in experiment [3] and 5.58 in experiment [5]. The pEC50 in experiment [4] and in experiment [6] was under 4.60 throughout.
On to `O=C(Nc1nc(/C=C/C2CCCCO2)cs1)c1cccn1Cc1ccncc1` (stereo not drawn) [Compound A155, 1-(pyridin-4-ylmethyl)-N-(4-(2-(tetrahydro-2H-pyran-2-yl)vinyl)thiazol-2-yl)-1H-pyrrole-2-carboxamide], for which the pIC50 in experiment [1] was 6.63; in experiment [2], 5.36; in experiment [3], 4.80; in experiment [5] it was 5.67. The pEC50 in experiment [4] and in experiment [6] was under 4.60 each time.
Regarding `COc1ccccc1/C=C/c1csc(NC(=O)c2cccn2Cc2ccncc2)n1` [Compound A158, N-(4-(2-methoxystyryl)thiazol-2-yl)-1-(pyridin-4-ylmethyl)-1H-pyrrole-2-carboxamide], the pIC50 was 6.53 in experiment [1], 5.83 in experiment [2], 5.62 in experiment [3] and 6.00 in experiment [5]. The pEC50 in experiment [4] was under 4.60; in experiment [6] it was 4.80.
Regarding `COc1cccc(/C=C/c2csc(NC(=O)c3cccn3Cc3ccncc3)n2)c1` [Compound A159, N-(4-(3-methoxystyryl)thiazol-2-yl)-1-(pyridin-4-ylmethyl)-1H-pyrrole-2-carboxamide], the pIC50 was 6.61 in experiment [1], 5.58 in experiment [2], 5.05 in experiment [3] and 6.02 in experiment [5]. Moreover, the pEC50 in experiment [4] is 4.79; in experiment [6], 5.24.
As to `COc1ccc(/C=C/c2csc(NC(=O)c3cccn3Cc3ccncc3)n2)cc1` [Compound A160, N-(4-(4-methoxystyryl)thiazol-2-yl)-1-(pyridin-4-ylmethyl)-1H-pyrrole-2-carboxamide], the pIC50 in experiment [1] was 7.29; in experiment [2] it was 6.43; in experiment [3], 5.76; in experiment [5] it was 6.59. For the same molecule, the pEC50 in experiment [4] was under 4.60; in experiment [6], 5.04.
With `O=C(Nc1nc(/C=C/c2ccccc2Cl)cs1)c1cccn1Cc1ccncc1` [Compound A161, N-(4-(2-chlorostyryl)thiazol-2-yl)-1-(pyridin-4-ylmethyl)-1H-pyrrole-2-carboxamide], the pIC50 is 6.87 in experiment [1], 5.97 in experiment [2], 5.54 in experiment [3] and 6.28 in experiment [5]. Further, the pEC50 in experiment [4] was 4.96; in experiment [6], 5.28.
In the case of `O=C(Nc1nc(/C=C/c2ccc(Cl)cc2)cs1)c1cccn1Cc1ccncc1` [Compound A163, N-(4-(4-chlorostyryl)thiazol-2-yl)-1-(pyridin-4-ylmethyl)-1H-pyrrole-2-carboxamide], the pIC50 in experiment [1] is 7.23; in experiment [2], 6.19; in experiment [3] it was 5.61; in experiment [5], 6.52. Besides, the results for the pEC50 in experiment [4] and in experiment [6] were 4.61 and 5.12, respectively.
With `O=C(Nc1nc(/C=C/c2ccccn2)cs1)c1cccn1Cc1ccncc1` [Compound A164], the pIC50 in experiment [1] is 7.01; in experiment [2], 5.17; in experiment [3], 4.63; in experiment [5] it was 5.08. The negative-log EC50 (pEC50) is under 4.60 in experiment [4] and 4.75 in experiment [6].
On to `O=C(Nc1nc(/C=C/c2cccnc2)cs1)c1cccn1Cc1ccncc1` [Compound A165, N-(4-(2-(pyridin-3-yl)vinyl)thiazol-2-yl)-1-(pyridin-4-ylmethyl)-1H-pyrrole-2-carboxamide], for which the pIC50 is 5.78 in experiment [1], 4.97 in experiment [2], under 4.60 in experiment [3] and 5.01 in experiment [5]. Moreover, the pEC50 in experiment [4] was under 4.60; in experiment [6] it was 4.96.
With `O=C(Nc1nc(/C=C/c2ccncc2)cs1)c1cccn1Cc1ccncc1` [Compound A166, N-(4-(2-(pyridin-4-yl)vinyl)thiazol-2-yl)-1-(pyridin-4-ylmethyl)-1H-pyrrole-2-carboxamide], the pIC50 in experiment [1] is 4.87; in experiment [2], under 4.60; in experiment [3], under 4.60; in experiment [5], under 4.60. Also, the pEC50 in experiment [4] and in experiment [6] was under 4.60 in each case.
Turning to `COc1cccc(CCc2csc(NC(=O)c3cccn3Cc3ccncc3)n2)c1` [Compound A176], the pIC50 is 6.57 in experiment [1], 5.92 in experiment [2], 5.54 in experiment [3] and 6.19 in experiment [5]. For the same molecule, the results for the pEC50 in experiment [4] and in experiment [6] were under 4.60 and 4.68, respectively.
Take `O=C(Nc1nc(CCc2ccccc2Cl)cs1)c1cccn1Cc1ccncc1` [Compound A178]: the pIC50 in experiment [1] is 6.82; in experiment [2] it was 6.30; in experiment [3] it was 6.03; in experiment [5], 6.44. In addition, the pEC50 in experiment [4] is 4.70; in experiment [6], 5.03.
Regarding `O=C(Nc1nc(CCc2cccc(Cl)c2)cs1)c1cccn1Cc1ccncc1` [Compound A179], the pIC50 in experiment [1] was 6.68; in experiment [2], 5.93; in experiment [3], 5.45; in experiment [5] it was 6.27. Besides, the pEC50 in experiment [4] is 4.98; in experiment [6], 5.24.
Take `O=C(Nc1nc(CCc2ccc(Cl)cc2)cs1)c1cccn1Cc1ccncc1` [Compound A180]: the pIC50 in experiment [1] is 7.24; in experiment [2], 6.55; in experiment [3], 6.13; in experiment [5] it was 6.81. The pEC50 in experiment [4] is 5.19; in experiment [6], 5.14.
